Paper PMC9505425, “Targeting of the Mitochondrial TET1 Protein by Pyrrolo[3,2-b]pyrrole Chelators” (International Journal of Molecular Sciences, 2022)
“And” between values parts separate entries of the source, which are not always exact repeats. Equal values may be shown once.

How the values were obtained:
H-1299 cells = experiment: MTT cytotoxicity assay, H-1299; assay type: cell-based, human
Method: (§1) The effects of the tested compounds 1–6 on HF-P4, U-118 MG, H1299, BT-20, and Caov-3 cell lines were evaluated by the MTT assay during 48 h treatment (Table 2 and Tables S2–S31). In all tested compounds, we recognized a difference in cytotoxicity between healthy cells (HF-P4) and cancer cell lines (BT-20, Caov-3, and H-1299). […] In the case of ovarian cancer, the authors discovered oncogenic and poor prognosis roles of TET1 in epithelial ovarian carcinoma (EOC). TET1 is believed to demethylate the epigenome and activate numerous oncogenic pathways in EOC. The aforementioned study presents a new mechanism where TET1 contributes to tumor development through collaboration with CK2α [21]. The overexpression of the TET1 protein was also found in triple negative breast cancer and was associated with an activation of PI3K/mTOR pathway and decreased overall survival.
(§2) A human glioblastoma cell line (U118-MG) and a human non-small-cell lung carcinoma cell line (H1299) were used for the cytotoxicity assay (MTT). Both cell lines were generously supplied by Dr. M. Masařik, PhD, Department of Pathological physiology, Masaryk University, Czech Republic. U118-MG cells were cultivated under standard conditions in Dulbecco’s modified Eagle’s medium (ATCC, Manassas, VA, USA) supplemented with 10% FBS and streptomycin (100 μg/mL) at 37 °C at a 5% CO2 atmosphere. H1299 cells were cultivated under standard conditions in RPMI 1640 (BioTech, Prague, Czech Republic) medium supplemented with 10% FBS and streptomycin (100 μg/mL) at 37 °C at a 5% CO2 atmosphere.
(§3) For the cytotoxicity assay, we used the following cell lines: human glioblastoma cell line U118-MG, human mammary gland/breast cell line BT-20, human ovary adenocarcinoma cell line Caov-3, and non-small-cell lung carcinoma H-1299. As previously mentioned, these cell lines contain a high level of the TET1 protein, which corresponds to a lower overall survival. In addition to these cell cultures, we used the human dermal fibroblast cell line HF-P4 as a healthy control. Determination of cytotoxicity was performed using the MTT [3-(4,5-dimethylthiazol-2-yl)-2,5-diphenyltetrazolium bromide] colorimetric assay. Viable cells from each cell line were cultured in 96-well plates (VWR, Stříbrná Skalice, Czech Republic) at a density of 1.0 × 10^5 cells per well and allowed to grow for 24 h in 200 μL of recommended medium. After a 1-day incubation, the medium was replaced with solutions of compounds 1–6 at concentration ranges of 0.1–20 μM. Each concentration was measured four times within one test, and the entire test was repeated three times. Tested compounds 1–6 were dissolved in DMSO and then diluted with corresponding medium to a final volume of 200 μL (maximum 1% DMSO). After 48 h exposure, cells were treated with 175 μL of MTT solution (P-LAB, Prague, Czech Republic) for 2 h. In the next step, MTT solution was removed, and 125 μL of DMSO (Penta, Prague, Czech Republic) was added to solubilize dark crystals of formazan formed in intact cells, and absorbance was measured at 570 nm by the enzyme-linked immunoabsorbent assay reader Infinite® 200 PRO (Tecan, Männedorf, Switzerland). The final DMSO concentration was smaller than 1% (v/v). The absorbance of untreated cells was considered 100%, and IC50 values were calculated by the GraphPad Prism 8 software. As a parameter for cytotoxicity, we used a concentration that inhibits 50% of cell growth (IC50).

[1] = MTT cytotoxicity assay, HF-P4; assay type: cell-based, human; settings: human, HF-P4 normal human dermal fibroblasts, repeats, read-out: Cell viability %
Method: as §1
(§4) A human dermal fibroblast cell line was used for intracellular localization and cytotoxicity assay (MTT). Human fibroblast cells HF-P4 (human fibroblasts—patient 4) are normal dermal fibroblasts, which were obtained from the residual skin of a healthy patient who underwent plastic surgery (with informed consent of the patient). HF-P4 cell lines were obtained from the Department of Plastic Surgery, Third Faculty of Medicine, Charles University and University Hospital Královské Vinohrady, Prague, Czech Republic, as described by Szabo et al., 2011, and Dvořánková et al., 2019 [88, 89], and have been processed in accordance with the relevant local ethics committee and the Declaration of Helsinki protection of patients’ rights and benefits with written and signed informed consent of each patient. Cells were cultivated under standard conditions in Dulbecco’s modified Eagle’s medium (ATCC, Manassas, VA, USA), supplemented with 10% FBS and streptomycin (100 μg/mL) at 37 °C at a 5% CO2 atmosphere.
as §3

HF-P4 cells = experiment: MTT cytotoxicity assay, HF-P4; assay type: cell-based, human; settings: 48 h; for Cell viability %: repeats
Method: as §1, §4, §3

U-118 MG cells = experiment: MTT cytotoxicity assay, U-118 MG; assay type: cell-based, human; settings: 48 h
Method: as §1, §2, §3

melting point: 312 to 313 °C
Compound: Cc1ccc(-n2c(-c3ccc(C(=O)NN)cc3)cc3c2cc(-c2ccc(C(=O)NN)cc2)n3-c2ccc(C)cc2)cc1 [Compound 1]
Cell viability % (H-1299 cells; H-1299, 100 nM, 48 h, repeats, 0.1 µM): 74.42% and 77.2% | Cell viability % (H-1299 cells; H-1299, 500 nM, 48 h, repeats, 0.5 µM): 114.5756% and 80.35% and 108.7959% | Cell viability % (H-1299 cells; H-1299, 750 nM, 48 h, repeats, 0.75 µM): 97.3% and 84.13% and 122.0664% | Cell viability % (H-1299 cells; H-1299, 1 uM, 48 h, repeats, 1 µM): 81.23% and 63.3% | Cell viability % (H-1299 cells; H-1299, 2.5 uM, 48 h, repeats, 2.5 µM): 76.07% and 72.39% | Cell viability % (H-1299 cells; H-1299, 5 uM, 48 h, repeats, 5 µM): 61.74% and 69.23% | Cell viability % (H-1299 cells; H-1299, 7.5 uM, 48 h, repeats, 7.5 µM): 36.84% and 36.67% | Cell viability % (H-1299 cells; H-1299, 10 uM, 48 h, repeats, 10 µM): 36.64% and 31.8986% | Cell viability % (H-1299 cells; H-1299, 15 uM, 48 h, repeats, 15 µM): 23.04% and 23.96% | Cell viability % (H-1299 cells; H-1299, 20 uM, 48 h, repeats, 20 µM): 17.01% and 14.68% | viability at 0.1 µM (H-1299 cells; Homo sapiens, NCI-H1299, 48 h, H-1299, 100 nM, repeats, read-out: Cell viability %): 86.7% | viability at 1 µM (H-1299 cells; Homo sapiens, NCI-H1299, 48 h, H-1299, 1 uM, repeats, read-out: Cell viability %): 69.9% | viability at 2.5 µM (H-1299 cells; Homo sapiens, NCI-H1299, 48 h, H-1299, 2.5 uM, repeats, read-out: Cell viability %): 68% | viability at 5 µM (H-1299 cells; Homo sapiens, NCI-H1299, 48 h, H-1299, 5 uM, repeats, read-out: Cell viability %): 57.7% | viability at 7.5 µM (H-1299 cells; Homo sapiens, NCI-H1299, 48 h, H-1299, 7.5 uM, repeats, read-out: Cell viability %): 38.4% | viability at 10 µM (H-1299 cells; Homo sapiens, NCI-H1299, 48 h, H-1299, 10 uM, repeats, read-out: Cell viability %): 35.2% | viability at 15 µM (H-1299 cells; Homo sapiens, NCI-H1299, 48 h, H-1299, 15 uM, repeats, read-out: Cell viability %): 23.9% | viability at 20 µM (H-1299 cells; Homo sapiens, NCI-H1299, 48 h, H-1299, 20 uM, repeats, read-out: Cell viability %): 19.2% | IC50 (H-1299 cells; Homo sapiens, NCI-H1299, MTT, 48 h): 6.89 µM | viability at 48 h, 0.1 µM ([1]; HF-P4, 100 nM): 101% | viability at 48 h, 0.5 µM ([1]; HF-P4, 500 nM): 106% | viability at 48 h, 0.75 µM ([1]; HF-P4, 750 nM): 94% | viability at 48 h, 1 µM ([1]; HF-P4, 1 uM): 105% | viability at 48 h, 2.5 µM ([1]; HF-P4, 2.5 uM): 94.3% | viability at 48 h, 5 µM ([1]; HF-P4, 5 uM): 80.7% | viability at 48 h, 7.5 µM ([1]; HF-P4, 7.5 uM): 77.3% | viability at 48 h, 10 µM ([1]; HF-P4, 10 uM): 70.5% | viability at 48 h, 15 µM ([1]; HF-P4, 15 uM): 67.1% | viability at 48 h, 20 µM ([1]; HF-P4, 20 uM): 64% | Cell viability % (HF-P4 cells; HF-P4, 100 nM, 0.1 µM): 110.5137% and 108.5444% | Cell viability % (HF-P4 cells; HF-P4, 500 nM, 0.5 µM): 109.6499% and 91.3% | Cell viability % (HF-P4 cells; HF-P4, 750 nM, 0.75 µM): 108.0378% and 98.14% | Cell viability % (HF-P4 cells; HF-P4, 1 uM, 1 µM): 114.0028% and 114.925% | Cell viability % (HF-P4 cells; HF-P4, 2.5 uM, 2.5 µM): 106.4486% and 88.2524% | Cell viability % (HF-P4 cells; HF-P4, 5 uM, 5 µM): 90.58% and 81.47% | Cell viability % (HF-P4 cells; HF-P4, 7.5 uM, 7.5 µM): 87.03% and 78.05% | Cell viability % (HF-P4 cells; HF-P4, 10 uM, 10 µM): 75.94% and 65.94% | Cell viability % (HF-P4 cells; HF-P4, 15 uM, 15 µM): 59.86% and 63.15% | Cell viability % (HF-P4 cells; HF-P4, 20 uM, 20 µM): 64.65% and 61.04% | IC50 (HF-P4 cells; Homo sapiens, MTT): > 20 µM | viability at 0.1 µM (U-118 MG cells; Homo sapiens, U-118-MG, U-118 MG, 100 nM, repeats, read-out: Cell viability %): 74.9% | viability at 0.5 µM (U-118 MG cells; Homo sapiens, U-118-MG, U-118 MG, 500 nM, repeats, read-out: Cell viability %): 81.2% | viability at 0.75 µM (U-118 MG cells; Homo sapiens, U-118-MG, U-118 MG, 750 nM, repeats, read-out: Cell viability %): 75.3% | viability at 1 µM (U-118 MG cells; Homo sapiens, U-118-MG, U-118 MG, 1 uM, repeats, read-out: Cell viability %): 61.6% | viability at 2.5 µM (U-118 MG cells; Homo sapiens, U-118-MG, U-118 MG, 2.5 uM, repeats, read-out: Cell viability %): 59.8% | viability at 5 µM (U-118 MG cells; Homo sapiens, U-118-MG, U-118 MG, 5 uM, repeats, read-out: Cell viability %): 64.5% | viability at 7.5 µM (U-118 MG cells; Homo sapiens, U-118-MG, U-118 MG, 7.5 uM, repeats, read-out: Cell viability %): 65.9% | viability at 10 µM (U-118 MG cells; Homo sapiens, U-118-MG, U-118 MG, 10 uM, repeats, read-out: Cell viability %): 49.8% | viability at 15 µM (U-118 MG cells; Homo sapiens, U-118-MG, U-118 MG, 15 uM, repeats, read-out: Cell viability %): 52.9% | viability at 20 µM (U-118 MG cells; Homo sapiens, U-118-MG, U-118 MG, 20 uM, repeats, read-out: Cell viability %): 32.4% | IC50 (U-118 MG cells; Homo sapiens, U-118-MG, MTT): > 20 µM | Cell viability % (U-118 MG cells; U-118 MG, 100 nM, repeats, 0.1 µM): 89.42% and 92.96% | Cell viability % (U-118 MG cells; U-118 MG, 500 nM, repeats, 0.5 µM): 77.57% and 78.28% | Cell viability % (U-118 MG cells; U-118 MG, 750 nM, repeats, 0.75 µM): 75.76% and 76.03% | Cell viability % (U-118 MG cells; U-118 MG, 1 uM, repeats): 65.25% and 66.5% | Cell viability % (U-118 MG cells; U-118 MG, 2.5 uM, repeats): 71.64% and 61.0448% | Cell viability % (U-118 MG cells; U-118 MG, 5 uM, repeats): 72.2848% and 61.2% | Cell viability % (U-118 MG cells; U-118 MG, 7.5 uM, repeats): 73.35% and 73.21% | Cell viability % (U-118 MG cells; U-118 MG, 10 uM, repeats): 65.4465% and 62.16% | Cell viability % (U-118 MG cells; U-118 MG, 15 uM, repeats): 49.75% and 52.18% | Cell viability % (U-118 MG cells; U-118 MG, 20 uM, repeats): 38.37% and 42.77%
